Literature values in US8088935B2, “Compounds and methods for the treatment of asthma” (Ironwood Pharmaceuticals, Inc., priority 2003, dated 2012).

Key:
[1] = toxicity studies

In the case of `O=C(O)c1cc(=O)c2c(OCC(O)COc3cccc4oc(C(=O)O)cc(=O)c34)cccc2o1` [Cromolyn, disodium cromoglycate], the acute toxicity [1] is given as “impressively low order of acute toxicity”, the biologic half-life (in vivo) is given as 46-99 minutes and the “Peak plasma levels occur (time)” value (inhaled) is given as at most 15 min.
